Where two headings read alike, the source gives them in different places.
What was measured:
Pim3 kinase = Pim3 kinase (Homo sapiens, UniProt Q86V86); experiment: Pim3 ATP depletion assay; assay type: biochemical
Pim1 kinase = Pim1 kinase (Homo sapiens, UniProt P11309); experiment: Pim1 ATP depletion assay; assay type: biochemical; conditions: Pim1 ATP depletion assay;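 note: Luciferase-luciferin luminescence readout of residual ATP after PIM1 transfers phosphate to a peptide substrate, 40 µM ATP added, reaction run to roughly half ATP consumption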
Chain of Pim1 kinase (P11309 whole entry): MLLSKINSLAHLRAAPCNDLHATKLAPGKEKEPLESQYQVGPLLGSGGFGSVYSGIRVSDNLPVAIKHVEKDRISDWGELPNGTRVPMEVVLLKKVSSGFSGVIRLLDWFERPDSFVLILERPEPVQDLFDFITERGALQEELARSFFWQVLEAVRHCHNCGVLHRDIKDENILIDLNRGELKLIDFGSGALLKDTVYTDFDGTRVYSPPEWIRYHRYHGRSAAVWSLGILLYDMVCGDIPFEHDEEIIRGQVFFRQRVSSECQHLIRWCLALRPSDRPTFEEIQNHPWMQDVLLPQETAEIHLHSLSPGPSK

HEL 92.1.7 cells = experiment: Cell proliferation assay (CellTiter-Glo), HEL 92.1.7; assay type: cell-based; conditions: Homo sapiens
Outline: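 CellTiter-Glo luminescence was read after 3-day compound exposure at 37 °C of cells plated at 1000/well in RPMI1640 with 10% FBS. Signal was normalised between DMSO-treated and control-compound-treated wells. EC50 is the concentration giving 50% of maximal effect.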

KDR kinase = KDR kinase (Homo sapiens, UniProt P35968); experiment: KDR AlphaScreen assay; conditions: KDR IC50 (μM)
Chain of KDR kinase (P35968 20-1356): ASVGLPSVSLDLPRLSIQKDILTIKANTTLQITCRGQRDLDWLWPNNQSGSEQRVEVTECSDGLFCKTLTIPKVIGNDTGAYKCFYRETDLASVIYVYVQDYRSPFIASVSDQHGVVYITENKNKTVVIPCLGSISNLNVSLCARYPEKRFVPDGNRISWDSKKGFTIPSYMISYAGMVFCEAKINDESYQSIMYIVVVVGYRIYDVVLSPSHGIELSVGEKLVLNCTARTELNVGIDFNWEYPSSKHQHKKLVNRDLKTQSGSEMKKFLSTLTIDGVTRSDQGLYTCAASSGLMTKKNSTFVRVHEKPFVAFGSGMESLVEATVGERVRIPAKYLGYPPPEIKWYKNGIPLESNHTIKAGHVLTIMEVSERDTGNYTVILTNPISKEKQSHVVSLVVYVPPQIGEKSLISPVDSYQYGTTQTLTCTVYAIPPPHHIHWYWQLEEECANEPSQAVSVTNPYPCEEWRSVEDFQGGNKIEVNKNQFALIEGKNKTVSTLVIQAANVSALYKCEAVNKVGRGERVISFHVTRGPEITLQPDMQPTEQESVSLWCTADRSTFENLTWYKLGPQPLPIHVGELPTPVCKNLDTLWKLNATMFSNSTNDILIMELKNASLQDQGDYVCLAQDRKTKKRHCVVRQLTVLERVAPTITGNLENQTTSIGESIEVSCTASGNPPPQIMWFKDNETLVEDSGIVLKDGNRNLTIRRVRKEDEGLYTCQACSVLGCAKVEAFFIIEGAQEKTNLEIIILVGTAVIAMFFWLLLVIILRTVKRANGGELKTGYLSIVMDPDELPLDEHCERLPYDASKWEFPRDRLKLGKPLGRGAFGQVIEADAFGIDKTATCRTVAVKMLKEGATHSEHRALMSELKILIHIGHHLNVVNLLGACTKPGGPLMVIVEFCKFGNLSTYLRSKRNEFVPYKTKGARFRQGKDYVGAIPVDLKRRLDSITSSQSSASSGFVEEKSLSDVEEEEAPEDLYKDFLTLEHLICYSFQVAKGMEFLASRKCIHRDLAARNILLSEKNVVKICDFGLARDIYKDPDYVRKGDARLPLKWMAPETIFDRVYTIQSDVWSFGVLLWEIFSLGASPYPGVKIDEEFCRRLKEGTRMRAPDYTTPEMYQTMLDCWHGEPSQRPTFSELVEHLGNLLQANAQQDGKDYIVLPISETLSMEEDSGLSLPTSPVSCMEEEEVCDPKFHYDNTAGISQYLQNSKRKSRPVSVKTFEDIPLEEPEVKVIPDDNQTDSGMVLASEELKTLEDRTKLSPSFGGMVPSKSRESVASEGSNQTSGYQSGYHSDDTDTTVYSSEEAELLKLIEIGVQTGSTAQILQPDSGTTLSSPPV

Pim2 kinase = Pim2 kinase (Homo sapiens, UniProt Q9P1W9); experiment: Pim2 ATP depletion assay; assay type: biochemical;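 note: Luciferase-based luminescent readout of ATP remaining after PIM2 phosphorylates a BAD peptide, final 5 nM enzyme, 4 µM ATP, 10 µM peptide, 2.5% DMSO, run to roughly half ATP consumption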
Chain of Pim2 kinase (Q9P1W9 whole entry): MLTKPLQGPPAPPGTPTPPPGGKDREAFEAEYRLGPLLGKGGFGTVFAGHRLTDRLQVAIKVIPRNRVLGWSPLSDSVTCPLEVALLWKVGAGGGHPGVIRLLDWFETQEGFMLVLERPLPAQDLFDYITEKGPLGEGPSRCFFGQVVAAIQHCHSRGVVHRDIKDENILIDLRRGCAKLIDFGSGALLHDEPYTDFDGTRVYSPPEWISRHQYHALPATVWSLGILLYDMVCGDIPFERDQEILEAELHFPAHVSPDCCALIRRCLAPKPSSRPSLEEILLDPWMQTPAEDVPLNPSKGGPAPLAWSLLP

[1] = biological target: T1, human full length PKCE enzyme (Homo sapiens, UniProt Q02156); experiment: In vitro PKCE assay; assay type: biochemical; conditions: 10 nM enzyme, 40 uM peptide substrate, 20 uM ATP, KinaseGlo Plus readout; read-out: PKCε IC50
T1 construct: human full length PKCE enzyme purchased from InVitrogen; purchased InVitrogen
T1 sequence (Q02156 1-737): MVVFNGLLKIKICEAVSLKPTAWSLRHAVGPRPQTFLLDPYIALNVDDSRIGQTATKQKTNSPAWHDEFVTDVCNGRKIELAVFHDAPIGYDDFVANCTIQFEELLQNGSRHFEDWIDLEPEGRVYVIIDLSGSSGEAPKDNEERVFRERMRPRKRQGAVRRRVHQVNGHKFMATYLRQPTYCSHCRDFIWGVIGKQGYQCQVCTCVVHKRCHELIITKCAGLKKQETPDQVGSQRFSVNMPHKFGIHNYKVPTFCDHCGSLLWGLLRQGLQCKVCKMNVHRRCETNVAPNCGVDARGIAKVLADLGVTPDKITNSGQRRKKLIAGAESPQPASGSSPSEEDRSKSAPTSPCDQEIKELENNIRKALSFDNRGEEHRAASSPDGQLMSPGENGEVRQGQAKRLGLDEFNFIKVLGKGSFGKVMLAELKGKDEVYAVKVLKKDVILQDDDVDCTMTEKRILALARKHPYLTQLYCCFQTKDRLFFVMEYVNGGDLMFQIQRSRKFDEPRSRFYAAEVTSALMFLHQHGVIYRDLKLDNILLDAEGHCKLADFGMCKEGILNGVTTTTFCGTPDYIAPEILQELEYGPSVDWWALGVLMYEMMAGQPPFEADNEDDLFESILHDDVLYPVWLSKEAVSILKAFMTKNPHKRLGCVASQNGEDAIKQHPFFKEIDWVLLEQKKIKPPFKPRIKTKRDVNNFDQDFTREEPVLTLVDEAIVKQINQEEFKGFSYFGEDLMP

| SMILES | IC50 (Pim3 kinase; read-out: PIM3 IC50) | IC50 (Pim1 kinase; read-out: PIM1 IC50) | EC50 (HEL 92.1.7 cells; read-out: HEL 92.1.7 EC50) | IC50 (KDR kinase) | IC50 (Pim2 kinase; read-out: PIM2 IC50) | IC50 [1] | IC50 (Pim3 kinase; read-out: IC50 (μM) PIM3) | IC50 (Pim1 kinase; read-out: IC50 (μM) PIM1) | EC50 (HEL 92.1.7 cells; read-out: EC50 (μM) HEL 92.1.7) | IC50 (Pim2 kinase; read-out: IC50 (μM) PIM2) |
| --- | --- | --- | --- | --- | --- | --- | --- | --- | --- | --- |
| Nc1ncc(-c2ccccc2)nc1C(=O)Nc1[nH]c(=O)ncc1N1CCCCC1 [Example 590, 3-amino-6-phenyl-pyrazine-2-carboxylic acid (2-oxo-5-piperidin-1-yl-2,3-dihydro-pyrimidin-4-yl)-amide] | < 1 µM | < 1 µM | 1 to 5 µM | < 1 µM | < 1 µM | 1 to 10 µM | – | – | – | – |
| NCC1CCCN(c2ccncc2NC(=O)c2nc(Cl)c(N)nc2N)C1 (stereo not drawn) [Example 182, 3,5-diamino-N-{4-[3-(amino-methyl)piperidin-1-yl]pyridin-3-yl}-6-chloropyrazine-2-carboxamide] | – | – | – | 1 to 10 µM | – | 1 to 10 µM | < 1 µM | < 1 µM | < 1 µM | < 1 µM |
| NCCC(=O)N1CCN(c2ccncc2NC(=O)c2nc(Cl)c(N)nc2N)CC1 [Example 185, 3,5-Diamino-6-chloro-pyrazine-2-carboxylic acid {4-[4-(3-amino-propionyl)-piperazin-1-yl]-pyridin-3-yl}-amide] | – | – | – | 1 to 10 µM | – | 1 to 10 µM | < 1 µM | < 1 µM | < 1 µM | < 1 µM |
| Nc1cc(Cl)c(-c2ccc(N)c(C(=O)Nc3cnccc3N3CCC[C@H](N)C3)n2)cn1 [Example 410, 5,6′-diamino-4′-chloro-[2,3′]bi-pyridinyl-6-carboxylic acid ((S)-3-amino-3,4,5,6-tetrahydro-2H-[1,4′]bipyridinyl-3′-yl)-amide] | – | – | – | > 25 µM | – | 1 to 10 µM | < 1 µM | < 1 µM | 1 to 5 µM | < 1 µM |
| Nc1ncc(-c2ccccc2F)nc1C(=O)Nc1cnccc1N1CCCC(N)C1 (stereo not drawn) [Example 350, 3-amino-6-(2-fluoro-phenyl)-pyrazine-2-carboxylic acid (3-amino-3,4,5,6-tetrahydro-2H-[1,4′]bipyridinyl-3′-yl)-amide] | – | – | – | – | – | < 1 µM | < 1 µM | < 1 µM | < 1 µM | < 1 µM |
| Nc1ncc(-c2ccccc2Cl)nc1C(=O)Nc1cnccc1N1CCCC(N)C1 (stereo not drawn) [Example 346, 3-amino-6-(2-chloro-phenyl)-pyrazine-2-carboxylic acid (3-amino-3,4,5,6-tetrahydro-2H-[1,4′]bipyridinyl-3′-yl)-amide] | – | – | – | – | – | < 1 µM | < 1 µM | < 1 µM | < 1 µM | < 1 µM |
| Nc1nc(N)c(C(=O)Nc2[nH]c(=O)ncc2N2CCCC(F)C2)nc1Cl (stereo not drawn) [Example 160, 3,5-diamino-6-chloro-N-[5-(3-fluoropiperidin-1-yl)-2-oxo-2,3-dihydropyrimidin-4-yl]pyrazine-2-carboxamide] | – | – | – | – | – | > 25 µM | < 1 µM | < 1 µM | > 10 µM | < 1 µM |
| Nc1ncc(-c2ccc(Cl)cc2)nc1C(=O)Nc1cnccc1N1CCCC(N)C1 (stereo not drawn) [Example 353, 3-amino-6-(4-chloro-phenyl)-pyrazine-2-carboxylic acid (3-amino-3,4,5,6-tetrahydro-2H-[1,4′]bipyridinyl-3′-yl)-amide] | – | – | – | – | – | < 1 µM | < 1 µM | < 1 µM | < 1 µM | < 1 µM |
| Nc1ncc(Br)nc1C(=O)Nc1[nH]c(=O)ncc1-c1ccccn1 [Example 145, 3-amino-6-bromo-N-(2-oxo-5-pyridin-2-yl-2,3-dihydro-pyrimidin-4-yl)pyrazine-2-carboxamide] | – | – | – | – | – | > 25 µM | < 1 µM | < 1 µM | 1 to 5 µM | < 1 µM |
| NCC(=O)N1CCN(c2ccncc2NC(=O)c2nc(Br)cnc2N)CC1 [Example 179, 3-amino-N-{4-[4-(aminoacetyl)-piperazin-1-yl]pyridin-3-yl}-6-bromopyrazine-2-carboxamide] | – | – | – | – | – | < 1 µM | < 1 µM | < 1 µM | 1 to 5 µM | < 1 µM |
| Nc1ncc(Br)nc1C(=O)Nc1[nH]c(=O)ncc1N1CCCC(C(F)(F)F)C1 (stereo not drawn) [Example 147, 3-amino-6-bromo-N-{2-oxo-5-[3-(trifluoromethyl)piperidin-1-yl]-2,3-dihydropyrimidin-4-yl}-pyrazine-2-carboxamide] | – | – | – | – | – | < 1 µM | < 1 µM | < 1 µM | 5 to 10 µM | < 1 µM |
| Nc1ncc(Br)nc1C(=O)Nc1[nH]c(=O)ncc1N1CCCC(N)C1 (stereo not drawn) [Example 239, 3-amino-N-[5-(3-aminopiperidin-1-yl)-2-oxo-2,3-dihydro-pyrimidin-4-yl]-6-bromo-pyrazine-2-carboxamide] | – | – | – | – | – | < 1 µM | < 1 µM | < 1 µM | > 10 µM | < 1 µM |
| Nc1ncc(-c2ccccc2OC(F)(F)F)nc1C(=O)Nc1cnccc1N1CCCC(N)C1 (stereo not drawn) [Example 347, 3-amino-6-(2-trifluoro-methoxy-phenyl)-pyrazine-2-carboxylic acid (3-amino-3,4,5,6-tetrahydro-2H-[1,4′]bi-pyridinyl-3′-yl)-amide] | – | – | – | – | – | < 1 µM | < 1 µM | < 1 µM | < 1 µM | < 1 µM |
| Nc1ncc(-c2cn[nH]c2)nc1C(=O)Nc1cnccc1N1CCCC(N)C1 (stereo not drawn) [Example 355, 3-amino-6-(1H-pyrazol-4-yl)-pyrazine-2-carboxylic acid (3-amino-3,4,5,6-tetrahydro-2H-[1,4′]bipyridinyl-3′-yl)-amide] | – | – | – | – | – | 1 to 10 µM | < 1 µM | < 1 µM | > 10 µM | < 1 µM |
| Nc1ncc(-c2cccnc2)nc1C(=O)Nc1cnccc1N1CCCC(N)C1 (stereo not drawn) [Example 356, 3-amino-6-pyridin-3-yl-pyrazine-2-carboxylic acid (3-amino-3,4,5,6-tetrahydro-2H-[1,4′]bipyridinyl-3′-yl)-amide] | – | – | – | – | – | 1 to 10 µM | < 1 µM | < 1 µM | > 10 µM | < 1 µM |
| Nc1nccnc1C(=O)Nc1[nH]c(=O)ncc1N1CCCC(C(F)(F)F)C1 (stereo not drawn) [Example 146, 3-amino-N-{2-oxo-5-[3-(trifluoromethyl)piperidin-1-yl]-2,3-dihydropyrimidin-4-yl}-pyrazine-2-carboxamide] | – | – | – | – | – | < 1 µM | < 1 µM | < 1 µM | > 10 µM | < 1 µM |
| Nc1ncc(Br)nc1C(=O)Nc1[nH]c(=O)ncc1N1CCCC(F)C1 (stereo not drawn) [Example 155, 3-amino-6-bromo-N-[5-(3-fluoropiperidin-1-yl)-2-oxo-2,3-dihydropyrimidin-4-yl]pyrazine-2-carboxamide] | – | – | – | – | – | 1 to 10 µM | < 1 µM | < 1 µM | 5 to 10 µM | < 1 µM |
| Nc1ncc(-c2ccccc2F)nc1C(=O)Nc1[nH]c(=O)ncc1N1CCCCC1 [Example 592, 3-amino-6-(2-fluoro-phenyl)-pyrazine-2-carboxylic acid (2-oxo-5-piperidin-1-yl-2,3-dihydro-pyrimidin-4-yl)-amide] | < 1 µM | < 1 µM | < 1 µM | – | < 1 µM | 1 to 10 µM | – | – | – | – |
| Nc1nc(N)c(C(=O)Nc2[nH]c(=O)ncc2N2CCC(F)CC2)nc1Cl [Example 151, 3,5-diamino-6-chloro-N-[5-(4-fluoropiperidin-1-yl)-2-oxo-2,3-dihydropyrimidin-4-yl]pyrazine-2-carboxamide] | – | – | – | – | – | > 25 µM | < 1 µM | < 1 µM | > 10 µM | < 1 µM |

Source: patent US20140249135A1, “PIM KINASE INHIBITORS AND METHODS OF THEIR USE” (NOVARTIS AG, priority 2007, published 2014)
